According to US20130281410A1, “METHODS FOR THE TREATMENT OF PSYCHIATRIC DISORDERS” (University of Utah Research Foundation, priority 2010, published 2013):

Columns and labels:
male MDD subjects = test: Clinical study of creatine monohydrate in male MDD subjects (HAMD, BDI); assay type: in vivo, human; settings: 5 g/day creatine monohydrate as a powder vs placebo, 0 to 8 weeks, FIGS. 1A and 1B
Experimental: FIGS. 1A and 1B show clinical assessment data of male subjects having MDD upon treatment with placebo (grey lines) or creatine monohydrate (5 g/day, black lines) for 0 to 8 weeks. Clinical assessment was performed using the Hamilton Depressing Rating Scale (FIG. 1A) or the Beck Depression Inventory scale (FIG. 1B).
A clinical study was performed to study the effect of creatine administration on male MDD subjects. A total of 6 male subjects (mean age of 42.7 years; age range 27 to 63) were enrolled in this study. Among the subjects, 5 subjects (mean age of 38.6 years; age range of 27 to 59) underwent at least one follow-up assessment. Three subjects received 5 g/day creatine monohydrate (as a powder), and two subjects received a placebo. The MDD symptoms of the subjects were assessed using the Hamilton Depression Rating Scale (HAMD) (FIG. 1A) or the Beck Depression Inventory (BDI) (FIG. 1B). The baseline HAMD total score for intention-to-treat sample was 30.4 (standard deviation of 5.1) and the baseline BDI total score was 31 (standard deviation of 11.3).

[1] = system: adolescent MDD patients living at high altitude; test: Clinical study of creatine monohydrate in adolescent MDD patients living at high altitude (CDRS); assay type: in vivo, human; settings: adolescents with MDD, Salt Lake City (4,300 feet), 5 g/day creatine monohydrate as a powder, 1 to 10 weeks
Experimental: Clinical assessment was performed using the Children's Depression Rating Scale (CDRS).
A clinical study was performed to determine the effect of creatine on adolescent MDD patients living at high altitude (Salt Lake City; elevation of 4,300 feet). In this study, three adolescents diagnosed as having MDD and living at high altitude were administered 5 g/day of creatine monohydrate (as a powder). The subjects in the study were monitored using the Children's Depression Rating Scale (CDRS). The study was performed for 1 to 10 weeks.

CN(CC(=O)O)C(=N)N.O [creatine, creatine monohydrate]
symptoms of MDD, Hamilton Depression Rating Scale (HAMD) and Beck Depression Inventory (BDI) (male MDD subjects): reduces the symptoms of MDD in male subjects
symptoms of MDD in patients living at high altitude [1]: reduces the symptoms of MDD in patients living at high altitude
Children's Depression Rating Scale (CDRS) score ([1]; after failing an SSRI trial, FIG. 2): reduction in CDRS score
